In patent US11602514B2, “Medicament having anti-inflammatory bowel disease function, and preparation method therefor and application thereof” (SUZHOU PHARMAVAN CO., LTD, priority 2018, dated 2023):

Key:
[1] = test system: mouse macrophages RAW264.7; test: effect on proliferation activity of mouse macrophages RAW264.7; format: cell-based; details: 80 μM; n=3; FIG. 4
[2] = test system: acute IBD model induced by 5% DSS; test: DSS-induced mouse in vivo model of IBD; design: species or system C57BL/6 mice; details: tail vein 5, 2.5, 1.25 mg/kg, 4 days
Description: Female SPF-grade C57BL/6 mice each with an age of 6 to 8 weeks were subjected to adaptive feeding for 3-7 days, and then fed with 5% aqueous solution of DSS in a free water-drinking manner (day0). The original aqueous solution of DSS was replaced with a fresh aqueous solution of DSS every 2 days. After the mice freely drank the aqueous solution of DSS for 7 days (day7), they were fed with fresh purified water. After 4 days of modeling, medicament was administered on the 5th day of modeling. Animals were administered via tail veins with 5 mg/kg, 2.5 mg/kg, and 1.25 mg/kg of the medicament for treatment. The animals were administered with the medicament for 4 continuous days, and then observed for 1 day. The experiments were terminated 24 h after the last administration.
Detection indexes: the weight of each group of animals was observed and recorded every day, and feces of each animal were collected to detect occult blood in the feces. If obvious blood in the feces cannot be determined, an occult blood detection kit was used for confirming the occult blood, and the result was recorded on an experimental record paper and photographed. When the experiments ended, animal serum was collected to detect the expression of IL-6 in the blood. At the same time, the fecal traits, occult blood, and weight change rate of each animal were scored, and the scores were added to give a DAI score for the animal. Colorectal tissue samples of the animals were collected for the subsequent pathological detection and detection of MPO in the tissue.

COc1c2cc(c(O)c1OC)CCCCC(OS(=O)(=O)O)CCc1ccc(O)c-2c1 (stereo not drawn) [compound H, 11-sulfonyloxy myricanol]
effect on proliferation activity of mouse macrophages RAW264.7 [1]: no significant effects
weight change rate (weight loss trend) ([2]; FIG. 10 (5 mg/kg vs 5% DSS p<0.01)): slowing the weight loss trend
level of IL-6 protein in serum ([2]; FIG. 11): significant anti-inflammatory effect
DAI score ([2]; FIG. 12): significant effect of reducing the DAI scores
colorectal pathology (injuries of intestinal mucosa) ([2]; FIG. 13): significant effect of repairing injuries of intestinal mucosa
colorectal MPO (oxidative injuries) ([2]; FIG. 14): a certain effect of improving oxidative injuries
